“Also recorded” adds a separate entry of the source.
Assays:
[1] = normal media containing 10 mM D-glucose; cited from earlier work
[2] = system: NIH/3T3 cells; assay: FACS-based flow cytometric analysis of probe uptake with/without 11 mM D-glucose; type: cell-based, murine; details: for reduction in cellular uptake due to 11 mM D-glucose: glucose-depleted condition normalized to 100
Protocol: FACS (Fluorescence Activated Cell Sorting)-based flow cytometric analysis was used to compare cellular uptake efficiency in NIH/3T3 cells among the glucose probe [2-(N-Cy3-piperazinoethyl)]-α-D-glucose (GB2-Cy3), synthesized in Example 2, the conventional fluorescent glucose probe 2-NBDG and the glucose probe Cy3-Glc-α, synthesized in Example 1.
NIH/3T3 cells were cultured on 10 cm cell culture dishes and transferred in a volume of 3×10^5 cells into each FACS tube (5 mL, BD). They were washed once with cold PBS before incubation at 37° C. for 30 min in 11 mM D-glucose-containing PBS or glucose-free PBS in the presence of the bioprobe [GB2-Cy3 (5 μM), 2-NBDG (5 μM or 50 μM) or Cy3-Glc-α (5 μM)]. Cells that were incubated without the bioprobes were used as a negative control. After being washed with cold PBS, 1×10^4 NIH/3T3 cells were analyzed on FACSCalibur™ (FACS-based flow cytometer). GBs-Cy3 was detected by FL2 channels. Raw data of 1×10^4 cells are shown in histograms, with the mean values thereof given in the graph of FIG. 21.

[3] = system: A549 cells; assay: Probe uptake by A549 cells, inverted fluorescent microscope (α/β anomers, alanine, 2-NBDG comparison); type: cell-based, human
Protocol: (§1) 1×10^4 cells were cultured on a Lab-Tek glass chamber slide (Nalge Nunc International, Naperville, Ind., USA) in 35 mm cell culture dish. After 24 h, the cells were treated for each experimental purpose. Then, the medium was replaced with RPMI 1640 medium containing 12.5 μM of Cy3-Glc-α. The cells were exposed to Cy3-Glc-α for 40 min, then washed with PBS 3 times. Finally, the glass chamber slide was taken from culture dish and loaded on the fluorescence microscope (Axiovert 200, Carl Zeiss, Germany). Fluorescence images of 35-50 cells were taken by CCD camera (Axiocam MRm, Germany) and fluorescence intensity of each cell was measured by Axiovision (program for data analysis). An area as ROIs (regions of interest) which contains a cell in phase-contrast image was drawn using Axiovision. Axiovision analyzed CCD camera images and provided the digitized mean of fluorescence intensity in the ROIs that the present inventors had established. The present inventors subtracted the background intensity from the fluorescence intensity to get the fluorescence intensity value that a cell contained. With the method described above, the present inventors digitized fluorescence intensity and performed various experiments.
To confirm the above hypothesis, real-time uptake of Cy3-Glc-α was measured, and the results were compared to those of Cy3-Glc-β by live imaging of A549 cells by using inverted fluorescent microscope. […] This led the present inventors to the conclusion that the stereochemistry at the C-1 anomeric position definitely influences the efficiency of mimicking glucose, and this might be due to the binding orientation of D-glucose in GLUTs [P. W. Hruz, M. M. Mueckler, Mole. Memb. Biol. 2001, 18, 183-193].
The cellular uptake of 2-NBDG was not detected under identical experimental conditions used for Cy3-Glc-α. […] To achieve the fluorescence intensity with 2-NBDG to 80% that of Cy3-Glc-α, a 10 fold increase in 2-NBDG concentration and a 20 fold increase in the lens exposure time in D-glucose-depleted medium were needed.
In addition, the cellular uptake of 2-NBDG in normal media (containing 10 mM D-glucose) was extremely low (>60% uptake reduction in normal media) and was hardly detected using fluorescent based imaging methods [R. G. O'Neil, L. Wu, N. Mullani, Mol. Imaging Biol. 2005, 7, 388-392]. 2-NBDG was detectable only in glucose-depleted media, and this means a critical limitation of bioapplication of 2-NBDG in the biologically significant environments. In comparison with 2-NBDG, the reduction of Cy3-Glc-α uptake in glucose-containing media was only 5% compared to that in glucose-depleted media (FIG. 18). Therefore, it was confirmed that Cy3-Glc-α was capable of being applied to a bioassay system regardless of glucose starvation.

[4] = system: A549 cells; assay: Screening of anticancer agents by Cy3-Glc-α uptake; type: cell-based, human
Protocol: as §1
The application was performed under the postulation that the depression of perturbed cellular metabolism in cancer cells was caused by anticancer agents, which was closely related to the reduction of glucose uptake.
The present inventors intended to monitor this phenomenon by the fluorescent bioprobe according to the present invention, that is, Cy3-Glc-α. As a proof-of-principle experiment, after A549 cancer cells were treated with taxol (9.8 μM), an anticancer agent, and the uptake of Cy3-Glc-αwas measured at 3, 6, 12, and 24 h after the treatment.
(3) In addition, after the taxol concentration was changed in the range of 490 nM to 49 nM, the uptake of Cy3-Glc-α by A549 cells was measured after 8 hr and 12 hr, and after another anticancer agent, i.e., combretastatin, (2 μM) was used to treat A549 cells, the uptake of Cy3-Glc-α by A549 cells was measured after 8 hr and 12 hr.

[5] = system: C2C12 muscle cells; assay: Glucose competition and insulin response monitored by GB2-Cy3, flow cytometry; type: cell-based, mouse; details: D-glucose competition and insulin treatment
Protocol: (§4) For the differentiation to mature muscle cells, C2C12 mouse myoblast cells were maintained in DMEM supplemented with 10% FBS and 1% antibiotic-antimycotic solution. When the cells reached to 100% confluency, the medium was changed to DMEM containing 2% horse serum in every two days. Experiments for flow cytometric analysis and flow cytometric analysis were carried out with cells after 3 to 5-days differentiation.
The resulting cells were incubated with 5 μM GB2-Cy3 for 15 min in the absence/presence of 11 mM D-glucose. They were washed with cold PBS, collected and analyzed using FACSCalibur™. After detection of GB2-Cy3 by FL2 channels, mean fluorescent intensity values were calculated.

[6] = system: 3T3/L1 pre-adipocytes; assay: GB2-Cy3 uptake during adipocyte differentiation, FACS-based flow cytometry; type: cell-based, mouse; details: day 0 to day 8 of differentiation
Protocol: (§2) For the differentiation of preadipocyte to mature adipocytes, 3T3/L1 fibroblast cells were cultured using the above mentioned culture protocol. […] When the cells start to generate lipid drops as an indication of the differentiation toward mature adipocytes, insulin was removed from the culture media. Mature adipocytes can be achieved by 8- to 12-day differentiation, and used for flow cytometric analysis and fluorescent bioimaging microscopy.
The changes in cellular glucose uptake from 3T3/L1 pre-adipocytes (day 0 of differentiation) toward more than 50% differentiation of mature adipocytes (day 8 of differentiation) were measured by FACS-based flow cytometric analysis using GB2-Cy3. The differentiation procedure was followed as described above. 1×10^4 cells were analyzed at FL2 channel of the flow cytometry. […] As mentioned above, the glucose analogue GB2-Cy3 of the present invention is useful for monitoring the differentiation of 3T3/L1 cells into mature adipocytes.

[7] = system: A549 cells; assay: Fluorescence imaging analysis of competitive probe uptake; type: cell-based, human
Protocol: (§3) Also, NIH/3T3, A549, C2C12 and 3T3/L1 cells, each having a population of 4×10^4 cells, were cultured on 35 mm cell culture dishes (BD Falcon™ Cell Culture Dish; BD Bioscience, CA, USA). Two days later, the cell culture medium was replaced with a glucose-depleted medium (DMEM, glucose free, GIBCO) supplemented with 0 mM, 11 mM or 55 mM D-glucose and 10 μM GB2-Cy3. After incubation at 37° C. for 30 min, the cells on the cover slips in the 35-mm cell culture dishes were washed twice with cold PBS and the cover slips were mounted on the caster of a fluorescence microscope (Olympus IX71). During observation under the fluorescence microscope, the cells were maintained at 37° C. in the chamber. Fluorescence images of 35-50 cells were taken by CCD camera (Axiocam MRm, Germany) and each cell was measured for fluorescence intensity using the image data analysis program Image-Pro® Plus (MediaCybernetics, USA). As ROIs (regions of interest), areas which encompassed cells within phase-contrast images were drawn using Image-Pro® Plus. Image-Pro® Plus analyzed CCD camera images to produce the digitized mean of fluorescence intensity within the ROIs that the present inventors had established. The background intensity was subtracted from the detected fluorescence intensity to give the fluorescence intensity value that a cell contained. In this manner, the fluorescence intensity was digitized for performing various experiments.
NIH/3T3 and A549 cells were cultured on microscope cover glasses in 35 mm cell culture dishes and subjected to fluorescence imaging analysis according to the protocol.

[8] = system: NIH/3T3 cells; assay: Fluorescence imaging analysis of competitive GB2-Cy3 uptake; type: cell-based, murine; details: GB2-Cy3 10 μM; 0, 11 or 55 mM D-glucose
Protocol: as §3, with “As ROIs (regions of interest), areas which encompassed cells within phase-contrast images were drawn using Image-Pro® Plus.” left out, “experiments. […]” for “experiments.”

[9] = system: 3T3/L1 adipocytes; assay: Cellular glucose uptake under insulin, AICAR, dexamethasone monitored by GB2-Cy3; type: cell-based, mouse; details: insulin 170 nM, AICAR 1 mM (1 hr) or dexamethasone 1 μM (24 hrs); GB2-Cy3 10 μM
Protocol: as §2
Also, C2C12 cells and 3T3/L1 cells, each having a population of 6×10^4 cells, were cultured and differentiated on respective microscope cover glasses [Marlenfeld GmbH&Co., KG (Germany)] in 35 mm cell culture dishes. After removal of the differentiation media, FBS-free DMEM media containing 5.5 mM glucose were added to maintained a serum-free condition for 4 hrs. […] In this regard, an FBS-free DMEM medium containing 5.5 mM glucose or a DMEM medium free of both FBS and glucose was used. Cells were incubated at 37° C. for 30 min after which the glass chamber slides were withdrawn from the culture dishes and loaded on a chamber. […] Fluorescence images were taken every seven seconds, digitized and saved on a computer until analysis.
3T3/L1 preadipocyte cells and C2C12 […] cells were cultured in 24-well plates. […] 2×10^5 (3T3/L1) or 1×10^5 (C2C12) cells were analyzed using FACSCalibur™ and a confocal laser scanning microscope.

[10] = system: C2C12 muscle cells; assay: as above; type: cell-based, mouse; details: insulin 170 nM, AICAR 1 mM (1 hr) or dexamethasone 1 μM (24 hrs); GB2-Cy3 5 μM
Protocol: as §4
3T3/L1 preadipocyte cells and C2C12 fibroblast cells were cultured in 24-well plates. […] 2×10^5 (3T3/L1) or 1×10^5 (C2C12) cells were analyzed using FACSCalibur™ and a confocal laser scanning microscope.

In the case of `O=[N+]([O-])c1ccc(NC2C(O)OC(CO)C(O)C2O)c2nonc12` [2-NBDG, 2-[N-(7-nitrobenz-2-oxa-1,3-diazol-4-yl)amino]-2-deoxy-D-glucose], the “uptake reduction in normal media” value [1] is listed as greater than 60%, the “competition with D-glucose for cellular uptake” value ([2]; probe 5 μM, 11 mM D-glucose) is listed as “did not compete with D-glucose for cellular uptake” and the “reduction in cellular uptake due to 11 mM D-glucose” value ([2]; probe 50 μM) is listed as 30%. For the same compound, the “detection of cellular uptake under conditions identical to Cy3-Glc-α” value ([3]; 12.5 μM, 500 ms lens exposure) was “not detected”, the “fluorescence detection at 125 μM” value ([3]; 125 μM, 500 ms CCD lens exposure) was “little detected; also recorded: the fluorescence was not detected” and the “fluorescence intensity of 2-NBDG relative to that of Cy3-Glc-α” value ([3]; 10 fold 2-NBDG concentration, 20 fold lens exposure time, D-glucose-depleted medium) was 80%.
In the case of `COc1ccc(C[C@@H](O)c2cc(OC)c(OC)c(OC)c2)cc1O` [Combretastatin], the “uptake of Cy3-Glc-α by A549 cells” value ([4]; agent 2 μM, 6 h) is reported as 57.4% and the “uptake of Cy3-Glc-α by A549 cells” value ([4]; agent 2 μM, 12 h) is reported as 45.0%.
With `C[N+]1=C(/C=C/C=C2/N(CCCCC(=O)N3CCN(CCOC4OC(CO)C(O)C(O)C4O)CC3)c3ccccc3C2(C)C)C(C)(C)c2ccccc21` [GB2-Cy3, [2-(N-Cy3-piperazinoethyl)]-α-D-glucose] the “uptake route of GB2-Cy3” value [5] was “GLUT-specific uptake”, the “fluorescent intensity (FL2) as differentiation progressed” value [6] was “increase in fluorescence intensity with the advance of differentiation; also recorded: the fluorescent intensity detected by FL2 channel was increased” and the “cellular uptake in A549 cells compared with NIH/3T3 cells” value ([7]; GB2-Cy3 10 μM) was “observed to increase in A549 lung carcinoma cells”. The “cellular uptake versus D-glucose concentration” value ([7]; GB2-Cy3 10 μM, 0, 11 or 55 mM D-glucose) was “reduced in a D-glucose dose-dependent manner”, the “cellular uptake versus D-glucose concentration” value ([7]; probe 12.5 μM) was “decreased in the cellular uptake of the glucose analogues in D-glucose dose-dependent manners” and the “change in the fluorescent intensity of ROIs when D-glucose changed from 10 mM to 55 mM” value ([7]; probe 12.5 μM) was “approximately 27%”. The “cellular uptake versus D-glucose concentration” value [8] was “reduced in a D-glucose dose-dependent manner” and the “reduction in cellular uptake due to 11 mM D-glucose” value ([2]; probe 5 μM) was “about 60%”.
For `CC(=O)O[C@H]1C(=O)[C@@]2(C)[C@H]([C@H](OC(=O)c3ccccc3)[C@]3(O)C[C@H](OC(=O)[C@H](O)[C@@H](NC(=O)c4ccccc4)c4ccccc4)C(C)=C1C3(C)C)[C@]1(OC(C)=O)CO[C@@H]1C[C@@H]2O` [Taxol], the “uptake of Cy3-Glc-α by A549 cells” value ([4]; agent 49 nM, 6 h) was 96.5%, the “uptake of Cy3-Glc-α by A549 cells” value ([4]; agent 49 nM, 12 h) was 86.9% and the “uptake of Cy3-Glc-α by A549 cells” value ([4]; agent 490 nM, 6 h) was 88.4%. For the same compound, the “uptake of Cy3-Glc-α by A549 cells” value ([4]; agent 490 nM, 12 h) was 61.8%, the “uptake of Cy3-Glc-α by A549 cells” value ([4]; agent 9.8 μM, 6 h) was 54.8% and the “uptake of Cy3-Glc-α by A549 cells” value ([4]; agent 9.8 μM, 12 h) was 50.2%. The “cellular uptake of Cy3-Glc-α versus incubation time with agent” value ([4]; taxol 9.8 μM, 3, 6, 12, 24 h) was “reduced as the incubation time increased”.
In the case of “insulin: Insulin purchased from SIGMA; stimulates GLUT4 translocation and glucose uptake”, the “effect on cellular uptake of glucose monitored by GB2-Cy3” value [9] is reported as “enhanced cellular uptake of glucose” and the “effect on cellular uptake of glucose monitored by GB2-Cy3” value [10] is reported as “enhanced cellular uptake of glucose”.

From patent publication US8772463B2, “Fluorescent dye-labeled glucose bioprobe, synthesis method and usage thereof” (SNU R&DB Foundation, priority 2007, dated 2014)
